Results on twelve molecules are retold here after publication PMC7395821 (Antiviral Research, 2020).

As usually defined, the CC50 is the concentration giving 50% cytotoxicity. Low values mean greater toxicity to the cells, high ones lower toxicity to the cells. By EC50 is commonly meant the concentration needed to bring the measured effect to its halfway point.

Series [1] deals with eGFP-JEV. As to the kind of experiment: eGFP-JEV-based HTS assay in Huh7 cells. It counts as cell-based, Japanese encephalitis virus. The following applies: 96-well, cytotoxic and false positive drugs excluded.
In series [2] the test system is eGFP-JEV. As to the kind of experiment: eGFP expression in eGFP-JEV infected BHK-21 cells. The format is cell-based, Japanese encephalitis virus. Particulars: BHK-21, eGFP-JEV MOI 0.1, two-fold dilutions, maximum 3 μM, 72 hpi.
The test system of a further series is JEV genome RNA. As to the kind of experiment: Real-time RT-PCR of viral RNA in WT-JEV infected Huh7 cells. It counts as cell-based, Japanese encephalitis virus. Particulars: WT-JEV MOI 0.5, various dosages, qRT-PCR at 48 hpi.
A short description of the next series: Cytotoxicity assay. It counts as cell-based. Particulars: human, Huh7 cells.
Series [3] deals with WT-JEV. As to the kind of experiment: Antiviral assay of WT-JEV in Huh7 cells, viral titer by plaque assay. The following applies: for EC50: Japanese encephalitis virus, Huh-7, read-out: EC50 (50% reduction of viral titer); for SI (selective index, ratio of CC50 to EC50): Huh7 cells.
Series [4] has as its system WT-JEV. In words: Time-of-addition assay. It counts as cell-based, Japanese encephalitis virus. Particulars: Huh7, WT-JEV MOI 10, 5 μM, titers at 12 hpi.

Structures are written as SMILES.

Turning to `OC(c1cc(C(F)(F)F)nc2c(C(F)(F)F)cccc12)C1CCCCN1` (centres unmarked) [Mefloquine], in the series on eGFP-JEV [1], the “hit status after HTS and dose-dependent reconfirmation with eGFP-JEV” value (shortened to “hit status”) is “potent inhibitor of JEV”.

Regarding `C#C[C@@]1(O)[C@H](O)[C@@H](CO)O[C@H]1n1ccc2c(N)ncnc21` [NITD008], the “effect on eGFP expression” value with eGFP-JEV [2] is recorded as “dose-dependent inhibitory effects”.

`CCCCCCCCCCCCCCCC[N+](C)(C)C` [cetrimonium bromide]: in the series on JEV genome RNA, the “viral RNA copies” value is given as “decreased in a dose-dependent manner”. For the same molecule, in “Cytotoxicity assay”, it took 7.88 µM to reach half-maximal cytotoxicity (CC50 at 48 h). Moreover, the “hit status” value in the series with eGFP-JEV [1] is recorded as “newly discovered inhibitors of JEV”. Further, the concentration giving a half-maximal response (EC50) with WT-JEV [3] worked out at 2.23 µM.

As for `CCCCCCCCCCCCCCCC[n+]1ccccc1` [cetylpyridinium chlorid, cetylpyridinium chloride], in the series on JEV genome RNA, the “viral RNA copies” value is “decreased in a dose-dependent manner”. In addition, the “hit status” value in the series on eGFP-JEV [1] is reported as “newly discovered inhibitors of JEV”.

In “Cytotoxicity assay”, `Oc1c(Cl)cc(Cl)c(Cl)c1Cc1c(O)c(Cl)cc(Cl)c1Cl` [hexachlorophene] came in with a CC50 at 48 h of 10 µM. Besides, the “hit status” value with eGFP-JEV [1] is recorded as “newly discovered inhibitors of JEV”. For the same molecule, in the series on WT-JEV [3], the “SI (selective index, ratio of CC50 to EC50)” value was greater than 10 and the concentration giving a half-maximal response (EC50) worked out at 0.421 µM.

`CCOC(=O)C1=C(C)NC(C)=C(C(=O)OCC)C1c1ccccc1/C=C/C(=O)OC(C)(C)C` [lacidipine]: the “hit status” value with eGFP-JEV [1] was “identified as hits”.

Regarding `NC(=O)N1CCC(CC(=O)N2CCC([C@H]3c4ncc(Br)cc4CCc4cc(Cl)cc(Br)c43)CC2)CC1` [lonafarnib], in the series on JEV genome RNA, the “viral RNA copies” value is on record as “decreased in a dose-dependent manner”. Further, in “Cytotoxicity assay”, the cytotoxic concentration (CC50) at 48 h is 11.4 µM. For the same molecule, in the series on WT-JEV [4], the “effect on virus propagation, compound added pre-infection (-1 to 0 h)” value was “no effect on virus propagation”; the “reduction in viral titer, compound added during viral infection (0-1 h)” value was 60%; the “viral titers, compound added post infection (1, 2, 4, 6, 8 h)” value was “significantly reduced”. Further, the “hit status” value in the series on eGFP-JEV [1] is “newly discovered inhibitors of JEV”. In the series with WT-JEV [3], the “SI (selective index, ratio of CC50 to EC50)” value is given as greater than 10 and the EC50 was 0.982 µM.

Consider `COC(=O)C1=C(C)NC(C)=C(C(=O)OCCN2CCN(C(c3ccccc3)c3ccccc3)CC2)C1c1cccc([N+](=O)[O-])c1` (centres unmarked) [manidipine], for which the “hit status” value in the series with eGFP-JEV [1] is recorded as “identified as hits”.

In the case of `COc1c(C)c2c(c(O)c1C/C=C(\C)CCC(=O)O)C(=O)OC2` [mycophenolic acid], the “hit status” value with eGFP-JEV [1] is reported as “identified as hits”.

For `O=[N+]([O-])c1ccc(O)c2ncccc12` [nitroxoline], the “viral RNA copies” value in the series with JEV genome RNA is reported as “decreased in a dose-dependent manner”. For the same molecule, in the series “Cytotoxicity assay”, the CC50 at 48 h worked out at 9.29 µM. For the same molecule, the “hit status” value in the series with eGFP-JEV [1] is on record as “newly discovered inhibitors of JEV”. Besides, the concentration for a half-maximal effect (EC50) in the series on WT-JEV [3] worked out at 2.48 µM.

In the case of `CC[C@@H]1/C=C(\C)C[C@H](C)C[C@H](OC)[C@H]2O[C@@](O)(C(=O)C(=O)N3CCCC[C@H]3C(=O)O[C@H](/C(C)=C/[C@@H]3CC[C@H](Cl)[C@H](OC)C3)[C@H](C)[C@@H](O)CC1=O)[C@H](C)C[C@@H]2OC` [pimecrolimus], the “hit status” value in the series on eGFP-JEV [1] was “identified as hits”.

As to `CC(C)OC(=O)[C@H](C)N[P@](=O)(OC[C@H]1O[C@@H](n2ccc(=O)[nH]c2=O)[C@](C)(F)[C@@H]1O)Oc1ccccc1` [sofosbuvir], the “hit status” value in the series on eGFP-JEV [1] is on record as “active”.
